# Patent US20220057378A1, “MICROBIAL MICROFLUIDIC BIOSENSOR” (priority 2015, published 2022)
# Like-named read-outs stand apart in the source and are kept apart here.
# How the values were obtained:
# [1] = tested on: E. coli MG1655/Pb7; test: 8-strain chip induction (fluorescence induction ratio); format: cell-based; conditions: toxin at t=0, pure water at t=2 hours; arsenic 0.2, cadmium 0.05, chromium(VI) 0.5, copper 5, lead 1.8 μM
# From the text: An overview of the sensor can be seen in FIG. 39. In order to acquire the large amount of data required to successfully train the classifier, five replicates of the fully self-contained device prototype were built, in which the microfluidic devices are mounted and imaged using custom-designed optics as shown in some embodiments herein (Milestone 6.9). The majority of the data for this project was acquired using a novel microfluidic device capable of housing eight different bacterial strains that receive media from a shared source. […] The design was expanded to house 18 strains and we have begun taking data with this new chip to provide larger datasets to the classifier. A detailed CAD drawing of this device can be seen in FIG. 56. The 18 cell trapping regions are vacuum-loaded from 18 downstream fluidic ports. Long, serpentine channels upstream of the trapping regions serve as fluidic buffer zones to prevent the cross-contamination of strains while loading. The toxin concentration is controlled dynamically by a peristaltic pump that mixes a water/toxin combination (representing the source water stream) with a concentrated medium stock.
# In each panel, the time series data for the “on-target” responding strain is plotted in bold.
# [2] = tested on: Pb2; test: microplate specificity test with on- and off-target heavy metals (fluorescence); format: cell-based, E. coli; conditions: on-target = 1, no-toxin control = 0; As 1.3, Cd 0.44, Cr(VI) 2, Cu 20, Pb 1, Hg 0.1, Co 20, Fe 500, Ni 1.7, Zn 7.6 μM
# From the text: (§1) Each column represents the fluorescence response of a strain to the on-target metal (normalized to “1”) and all off-target metals, where “0” represents the unchanged response for the no-toxin control.
# (§2) Although the ability to sense cobalt, iron, nickel, and zinc is of secondary importance, these heavy metals were included as potential off-target inducers because they may be present in the natural water supply under test. […] This combinatorial logic was implemented in algorithms.
# [3] = tested on: Cd1; test: as above; format: cell-based, E. coli; conditions: on-target = 1, no-toxin control = 0; As 1.3, Cd 0.44, Cr(VI) 2, Cu 20, Pb 1, Hg 0.1, Co 20, Fe 500, Ni 1.7, Zn 7.6 μM
# From the text: as §1, §2
# [4] = tested on: Cr5; test: as above; format: cell-based, E. coli; conditions: on-target = 1, no-toxin control = 0; As 1.3, Cd 0.44, Cr(VI) 2, Cu 20, Pb 1, Hg 0.1, Co 20, Fe 500, Ni 1.7, Zn 7.6 μM
# From the text: as §1, §2
# [5] = tested on: Cu1; test: as above; format: cell-based, E. coli; conditions: on-target = 1, no-toxin control = 0; As 1.3, Cd 0.44, Cr(VI) 2, Cu 20, Pb 1, Hg 0.1, Co 20, Fe 500, Ni 1.7, Zn 7.6 μM
# From the text: as §1, §2
# [6] = tested on: As3; test: as above; format: cell-based, E. coli; conditions: on-target = 1, no-toxin control = 0; As 1.3, Cd 0.44, Cr(VI) 2, Cu 20, Pb 1, Hg 0.1, Co 20, Fe 500, Ni 1.7, Zn 7.6 μM
# From the text: as §1, §2
# [7] = tested on: Hg3; test: as above; format: cell-based, E. coli; conditions: on-target = 1, no-toxin control = 0, As 1.3, Cd 0.44, Cr(VI) 2, Cu 20, Pb 1, Hg 0.1, Co 20, Fe 500, Ni 1.7, Zn 7.6 μM
# From the text: as §1, §2
# [8] = tested on: E. coli MG1655; format: cell-based; conditions: for Number DE Genes: false discovery rate below 1%
# From the text: RNA-Seq results for promoter activation in E. coli MG1655 in response to single and multiple toxin exposures at low and high concentrations: Our analysis of the sequencing data from RNA-Seq experiments to determine candidate genes that are induced upon toxin exposure consisted of three main tasks: sequence alignment, quantification of gene expression, and identification of differentially expressed genes. Sequence alignment: Reads were aligned to the reference E. coli K-12 substr. MG1655 genome using a tolerance of at most two mismatches per alignment to protect against sequencing errors. The alignment was performed using Bowtie software, 5 which is known to be very efficient in aligning reads to a reference genome. Without being limiting, Bowtie software 5 can be used for the alignment. Those skilled in the art will appreciate that there are many such software programs for performing alignments.
# Quantification of gene expression: The expression level of each gene was determined as a function of the number of aligned reads mapping to the gene. […] Additionally, we implemented our own algorithms for sequence alignment and quantification of gene expression in order to crosscheck all results.
# Identification of differentially expressed genes: Finally, a set of statistical and information theory algorithms were applied in order to extract not only differentially expressed (DE) genes for each toxin with respect to the control samples (pure water) but also toxin-specific genes. DESeq is a standard tool for identifying DE genes that allowed us to select sensitive genes with differential expression between the control samples (pure water) and the cells exposed to toxin. It assumes that the number of counts for each gene across experimental replicates follows a negative binomial distribution (8, 9). We considered genes with a False Discovery Rate (FDR) lower than 1% as DE in order to ensure statistically robust DE genes. […] Additionally, genes with the largest number of counts and expression levels are preferable in order to maximize the signal-to-noise ratio. When it is not possible to find toxin-specific genes, the next generation of good candidates is formed by those genes satisfying the above properties for a small subset of toxins (multiple-toxin response). It is desirable to have single-toxin-specific genes for several of the toxins in the combination in order to determine toxin-specific multi-gene-responses by means of logical operations. […] Therefore, we have developed information theoretic measures to improve the toxin separability. The core idea of the approach is that low entropies (or highly informative genes) correspond to toxin-specific genes, while large entropies (low information) are associated with scenarios in which DE fold-changes across different toxins are similar and should be discarded.
# Milestone 2.1: Expose target cells to toxins of interest over four orders of magnitude of concentration and extract RNA: Three strains of bacteria were exposed to relevant levels of all toxins and extracted RNA. The toxin exposure protocol involves first growing a culture of bacterial cells to mid-log phase (OD≤0.2). […] Finally, cellular RNA was stabilized using Qiagen RNA Protect reagent, the cells were centrifuged, and the pellet was frozen at −80° C. To investigate the cellular RNA response to toxin insult, we exposed E. coli MG1655, E. coli LABEC01, and B. subtilis 168 cells to the toxins and concentrations shown in Table 7 and extracted RNA.
# Milestone 2.5: Prepare isolated RNA for Illumina sequencing using vendor provided reagents and carry out sequencing: We have prepared libraries and carried out sequencing for all toxins of interest.
compound,measurement,setting,value
[As] [Arsenic],GFP response of strain Pb7,[1],smaller response
same,fluorescence response of strain Pb2 (on-target lead),[2],0.33
same,fluorescence response of strain Cd1 (on-target cadmium),[3],−0.18
same,fluorescence response of strain Cr5 (on-target chromium(VI)),[4],0.24
same,fluorescence response of strain Cu1 (on-target copper),[5],−0.05
same,fluorescence response of strain As3 (on-target arsenic),[6],1.00
same,fluorescence response of strain Hg3 (on-target mercury),[7],0.25
same,response of the arsR promoter,[8]; RNA-Seq mean fold change,responds specifically and monotonically to increasing concentrations
same,Number DE Genes,[8]; high concentration,14
same,Number DE Genes,[8]; low concentration,3
[Cd] [Cadmium],GFP response of strain Pb7,[1],much larger response
same,fluorescence response of strain Pb2 (on-target lead),[2],0.46
same,fluorescence response of strain Cd1 (on-target cadmium),[3],1.00
same,fluorescence response of strain Cr5 (on-target chromium(VI)),[4],−0.02
same,fluorescence response of strain Cu1 (on-target copper),[5],−0.08
same,fluorescence response of strain As3 (on-target arsenic),[6],−0.13
same,fluorescence response of strain Hg3 (on-target mercury),[7],−0.26
same,response of the zntA promoter,[8]; RNA-Seq mean fold change,responds monotonically to increasing concentrations
same,Number DE Genes,[8]; high concentration,38
same,Number DE Genes,[8]; low concentration,132
[Cr+6] [Chromium(VI)],GFP response of strain Pb7,[1],equal magnitude but more rapid response
same,fluorescence response of strain Pb2 (on-target lead),[2],1.69
same,fluorescence response of strain Cd1 (on-target cadmium),[3],0.62
same,fluorescence response of strain Cr5 (on-target chromium(VI)),[4],1.00
same,fluorescence response of strain Cu1 (on-target copper),[5],−0.06
same,fluorescence response of strain As3 (on-target arsenic),[6],−0.22
same,fluorescence response of strain Hg3 (on-target mercury),[7],−0.96
same,fluorescence response of strain Hg3 (on-target mercury),[7]; listed as chromium(VI),sensitive
same,response of the recN promoter,[8]; RNA-Seq mean fold change,only shows sensitivity to high concentrations
same,response of the sulA promoter,[8]; RNA-Seq mean fold change,only shows sensitivity to high concentrations
same,response of the umuD promoter,[8]; RNA-Seq mean fold change,only shows sensitivity to high concentrations
same,Number DE Genes,[8]; high concentration,377
same,Number DE Genes,[8]; low concentration,270
[Cu] [Copper],GFP response of strain Pb7,[1],smaller response
same,fluorescence response of strain Pb2 (on-target lead),[2],−0.17
same,fluorescence response of strain Cd1 (on-target cadmium),[3],−0.09
same,fluorescence response of strain Cr5 (on-target chromium(VI)),[4],−0.08
same,fluorescence response of strain Cu1 (on-target copper),[5],1.00
same,fluorescence response of strain Hg3 (on-target mercury),[7],0.16
same,response of the cusC promoter,[8]; RNA-Seq mean fold change,responds monotonically to increasing concentrations
same,response of the cusR promoter,[8]; RNA-Seq mean fold change,only shows sensitivity to high concentrations
same,Number DE Genes,[8]; high concentration,77
same,Number DE Genes,[8]; low concentration,110
[Pb] [Lead],GFP response of strain Pb7,[1],responding
same,fluorescence response of strain Pb2 (on-target lead),[2],1.00
same,fluorescence response of strain Cd1 (on-target cadmium),[3],0.06
same,fluorescence response of strain Cr5 (on-target chromium(VI)),[4],0.01
same,fluorescence response of strain Cu1 (on-target copper),[5],−0.05
same,fluorescence response of strain As3 (on-target arsenic),[6],−0.05
same,fluorescence response of strain Hg3 (on-target mercury),[7],0.12
same,response of the mntH promoter,[8]; RNA-Seq mean fold change,responds to high concentrations
same,response of the shiA promoter,[8]; RNA-Seq mean fold change,responds to high concentrations
same,response of the ybiI promoter,[8]; RNA-Seq mean fold change,responds specifically and monotonically to increasing concentrations
same,Number DE Genes,[8]; high concentration,489
same,Number DE Genes,[8]; low concentration,99
Mercury,fluorescence response of strain Pb2 (on-target lead),[2],1.44
same,fluorescence response of strain Cd1 (on-target cadmium),[3],−0.09
same,fluorescence response of strain Cr5 (on-target chromium(VI)),[4],0.58
same,fluorescence response of strain Cu1 (on-target copper),[5],−0.05
same,fluorescence response of strain As3 (on-target arsenic),[6],−0.18
same,fluorescence response of strain Hg3 (on-target mercury),[7],1.00
same,Number DE Genes,[8]; high concentration,218
same,Number DE Genes,[8]; low concentration,165
